Measurements reported in US10670605B2, “Cysteine reactive probes and uses thereof” (The Scripps Research Institute, priority 2015, dated 2020).

Assays:
Experiment in all cases: Competitive isoTOP-ABPP, cell lysates;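 as to isoTOP-ABPP reactivity profile ratio, O00170 C122: Heavy/light ratio DMSO over fragment-treated so higher means more cysteine engagement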;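 as to isoTOP-ABPP reactivity profile ratio, P68036 C86: Heavy/light ratio DMSO over fragment-treated so higher means more cysteine engagement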
Format in all cases: binding
Conditions in all cases: 500 μm, in-vitro_ramos_231
ACAT1 C413 (P24752) = target: T1, ACAT1 C413 (P24752) (Homo sapiens, UniProt P24752)
T1 sequence (P24752 34-427): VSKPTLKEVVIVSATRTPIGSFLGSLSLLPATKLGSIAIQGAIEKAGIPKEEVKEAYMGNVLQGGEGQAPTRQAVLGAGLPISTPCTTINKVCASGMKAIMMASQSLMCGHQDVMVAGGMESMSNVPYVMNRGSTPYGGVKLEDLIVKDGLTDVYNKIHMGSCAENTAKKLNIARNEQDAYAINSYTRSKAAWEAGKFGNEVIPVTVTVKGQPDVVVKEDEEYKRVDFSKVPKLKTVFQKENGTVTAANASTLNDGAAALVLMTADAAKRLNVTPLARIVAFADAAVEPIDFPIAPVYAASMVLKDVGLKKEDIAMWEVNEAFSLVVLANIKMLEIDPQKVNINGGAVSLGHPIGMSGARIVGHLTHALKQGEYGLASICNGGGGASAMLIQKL

ACAT1 C119 (P24752) = target: T2, ACAT1 C119 (P24752) (Homo sapiens, UniProt P24752)
T2 sequence (P24752 34-427): T1 sequence (P24752 34-427)

UBE2L3 C86 (P68036) = UBE2L3 C86 (P68036) (Homo sapiens, UniProt P68036);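 also: Heavy/light ratio DMSO over fragment-treated so higher means more cysteine engagement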
Experimental: (§1) TEV digests were pressure loaded onto a 250 μm (inner diameter) fused silica capillary column packed with C18 resin (Aqua 5 μm, Phenomenex). The samples were analyzed by multidimensional liquid chromatography tandem mass spectrometry (MudPIT), using an LTQ-Velos Orbitrap mass spectrometer (Thermo Scientific) coupled to an Agilent 1200-series quaternary pump. The peptides were eluted onto a biphasic column with a 5 μm tip (100 μm fused silica, packed with C18 (10 cm) and bulk strong cation exchange resin (3 cm, SCX, Phenomenex,)) in a 5-step MudPIT experiment, using 0%, 30%, 60%, 90%, and 100% salt bumps of 500 mM aqueous ammonium acetate and using a gradient of 5-100% buffer B in buffer A (buffer A: 95% water, 5% acetonitrile, 0.1% formic acid; buffer B: 5% water, 95% acetonitrile, 0.1% formic acid) as has been described in Weerapana et al. Nat Protoc 2:1414-1425 (2007). Data was collected in data-dependent acquisition mode with dynamic exclusion enabled (20 s, repeat of 2). One full MS (MS1) scan (400-1800 m/z) was followed by 30 MS2 scans (ITMS) of the nth most abundant ions.
(§2) The ratios of heavy/light for each unique peptide (DMSO/compound treated; isoTOP-ABPP ratios, R values) were quantified with in-house CIMAGE software, using default parameters (3 ms s per peak and signal to noise threshold 2.5). Site-specific engagement of electrophilic fragments was assessed by blockade of IA-alkyne probe labeling. […] Ratios for unique peptide entries were calculated for each experiment; overlapping peptides with the same modified cysteine (e.g. different charge states, MudPIT chromatographic steps or tryptic termini) were grouped together and the median ratio was reported as the final ratio (R). The peptide ratios reported by CIMAGE were further filtered to ensure the removal or correction of low quality ratios in each individual dataset. The quality filters applied were the following: removal of half tryptic peptides; for ratios with high standard deviations from the median (90% of the median or above) the lowest ratio was taken instead of the median; removal of peptides with R=20 and only a single ms2 event triggered during the elution of the parent ion; manual annotation of all the peptides with ratios of 20, removing any peptides with low-quality elution profiles that remained after the previous curation steps. Proteome reactivity values for individual fragments were computed as the percentage of the total quantified cysteine-containing peptides with R values≥4 (defined as liganded cysteines) for each replicate experiment and the final proteome reactivity value was calculated as the mean for all replicate experiments for each fragment from both MDA-MB-231 and Ramos cellular proteomes.
(§3) Biological replicates of the same compound and cell-line were averaged if the standard deviation was below 60% of the mean; otherwise the lowest value of the ratio set was taken.

AIP C122 (O00170) = target: T3, AIP C122 (O00170) (Homo sapiens, UniProt O00170);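 also: Heavy/light ratio DMSO over fragment-treated so higher means more cysteine engagement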
T3 sequence (O00170 1-330): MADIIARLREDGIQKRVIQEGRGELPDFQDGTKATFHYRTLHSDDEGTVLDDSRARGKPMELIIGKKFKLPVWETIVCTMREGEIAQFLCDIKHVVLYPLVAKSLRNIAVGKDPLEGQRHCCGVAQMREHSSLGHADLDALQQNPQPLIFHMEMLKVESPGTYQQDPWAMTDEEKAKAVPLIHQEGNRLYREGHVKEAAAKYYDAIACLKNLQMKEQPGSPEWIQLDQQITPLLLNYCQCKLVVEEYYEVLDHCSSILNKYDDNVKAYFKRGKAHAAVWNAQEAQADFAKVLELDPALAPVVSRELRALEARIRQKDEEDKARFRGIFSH
Experimental: as §1, §2, §3

LRBA C1704 (P50851) = LRBA C1704 (P50851) (Homo sapiens, UniProt P50851)
Experimental: as §1, §2, §3

SAMHD1 C522 (Q9Y3Z3) = SAMHD1 C522 (Q9Y3Z3) (Homo sapiens, UniProt Q9Y3Z3)
Experimental: as §1, §2, §3

ZNF217 C286 (O75362) = ZNF217 C286 (O75362) (Homo sapiens, UniProt O75362)
Experimental: as §1, §2, §3

PDIA6 C55 (Q15084) = target: T4, PDIA6 C55 (Q15084) (Homo sapiens, UniProt Q15084)
T4 sequence (Q15084 20-440): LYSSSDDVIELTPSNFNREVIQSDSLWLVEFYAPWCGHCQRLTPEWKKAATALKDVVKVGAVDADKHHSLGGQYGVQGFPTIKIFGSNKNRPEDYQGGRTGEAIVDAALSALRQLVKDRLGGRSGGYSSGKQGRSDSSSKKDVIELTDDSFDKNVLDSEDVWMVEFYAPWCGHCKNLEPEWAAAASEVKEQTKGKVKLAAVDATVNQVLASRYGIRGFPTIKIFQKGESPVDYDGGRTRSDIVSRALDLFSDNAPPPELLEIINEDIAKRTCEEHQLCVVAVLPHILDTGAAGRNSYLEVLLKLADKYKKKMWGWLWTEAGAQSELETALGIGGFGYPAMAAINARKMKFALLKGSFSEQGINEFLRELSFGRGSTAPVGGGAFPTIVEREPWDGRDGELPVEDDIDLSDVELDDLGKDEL
Experimental: as §1, §2, §3

PDIA6 C190 (Q15084) = target: T5, PDIA6 C190 (Q15084) (Homo sapiens, UniProt Q15084)
T5 sequence (Q15084 20-440): T4 sequence (Q15084 20-440)
Experimental: as §1, §2, §3

XPO1 C34 (O14980) = XPO1 C34 (O14980) (Homo sapiens, UniProt O14980)
Experimental: as §1, §2, §3

PRMT1 C109 (Q99873) = PRMT1 C109 (Q99873) (Homo sapiens, UniProt Q99873)
Experimental: as §1, §2, §3

ACAT1 C196 (P24752) = target: T6, ACAT1 C196 (P24752) (Homo sapiens, UniProt P24752)
T6 sequence (P24752 34-427): T1 sequence (P24752 34-427)

ACAT1 C126 (P24752) = target: T7, ACAT1 C126 (P24752) (Homo sapiens, UniProt P24752)
T7 sequence (P24752 34-427): T1 sequence (P24752 34-427)

Compound: Cc1ccc(C(F)(F)F)cc1NC(=O)CCl [compound 49]
- isoTOP-ABPP reactivity profile ratio, P24752_C413 (ACAT1 C413 (P24752)): 2.6
- isoTOP-ABPP reactivity profile ratio, P24752_C119 (ACAT1 C119 (P24752)): 4.9
- isoTOP-ABPP reactivity profile ratio, P68036_C86 (UBE2L3 C86 (P68036)): 1.9
- isoTOP-ABPP reactivity profile ratio, O00170_C122 (AIP C122 (O00170)): 4.8
- isoTOP-ABPP reactivity profile ratio, P50851_C1704 (LRBA C1704 (P50851)): 4.0
- isoTOP-ABPP reactivity profile ratio, Q9Y3Z3_C522 (SAMHD1 C522 (Q9Y3Z3)): 3.0
- isoTOP-ABPP reactivity profile ratio, O75362_C286 (ZNF217 C286 (O75362)): 1.0
- isoTOP-ABPP reactivity profile ratio, Q15084_C55 (PDIA6 C55 (Q15084)): 12.8
- isoTOP-ABPP reactivity profile ratio, Q15084_C190 (PDIA6 C190 (Q15084)): 7.7
- isoTOP-ABPP reactivity profile ratio, O14980_C34 (XPO1 C34 (O14980)): 1.9
- isoTOP-ABPP reactivity profile ratio, Q99873_C109 (PRMT1 C109 (Q99873)): 2.0
- isoTOP-ABPP reactivity profile ratio, P24752_C196 (ACAT1 C196 (P24752)): 4.7
- isoTOP-ABPP reactivity profile ratio, P24752_C126 (ACAT1 C126 (P24752)): 20.0
